The subject of assay [1] is endothelial protein C receptor (EPCR). Kind of assay: Western blotting of EPCR protein expression in HCAECs treated with limus drugs or paclitaxel. The note with it: 24 h. The class given is cell-based, human. Here is the method: (§1) Specifically, HCAECs are cultured in an endothelial cell basal medium (EBM)-2 (Lonza, CC3156) supplemented with a 3% fetal bovine serum (FBS) and endothelial growth factor supplement mixture (Lonza, CC4176) under standard cell culture conditions (37° C., 5% CO2), and P3-5 cells are tested at 70%-80%. Western blotting is performed to test protein expression after HCAECs are treated with rapamycin, zotarolimus, everolimus, and paclitaxel at the doses shown in FIG. 1, or 100 nM of tacrolimus, deforolimus, biolimus A9, and pimecrolimus for 24 h. Alternatively, C57BL6/J mice received rapamycin, zotarolimus, everolimus, and paclitaxel at 2 mg/kg of body weight daily via tail vein injection for 2 weeks, and immunofluorescence observation of tissues is performed.

Assay [2] deals with HCAECs. Kind of assay: CCK-8 viability of HCAECs on coated 316 L stainless steel. Format: cell-based, human. The note with it: PLGA slow-release coating, 48 h, rapamycin 50 μg/mL, activators in combination with rapamycin. Here is the method:
(§2) The effect of APC on a simulated stent environment of PLGA slow-release coating on a 316 L steel sheet is investigated. Slow-release coatings of a solvent control (tetrahydrofuran, THF) wrapped in poly(lactic-co-glycolic acid) (PLGA 75:25), rapamycin (50 μg/mL), APC (50 μg/mL), 40 μM of TR47, and 20 μM of Parmodulin 2, or each in combination with rapamycin (50 μg/mL) are coated on surfaces of 316 L stainless steel plates respectively.
(§3) After HCAECs are grown on the 316 L stainless steel plate for 48 h, the cell viability is tested by a CCK-8 method, the cell multiplication capacity is tested by an EdU method, and the cell migration capacity is tested by a scratch method. […] Calcein-AM staining is followed by fluorescence microscopy.
(§4) The above cells are inoculated on 316 SS, 316 L SS/Rapamycin, 316 L SS/Rapamycin/APC, 316 L SS/Rapamycin/TR47, and 316 L SS/Rapamycin/Parmodulin 2 in a 24-well plate at a density of 2×10^4 cells/mL. 10 μL of CCK-8 reaction solution is added to a 24-well plate according to CCK-8 instructions, and the optical density value (OD value) is measured at 4 h by a spectrophotometer with a wavelength of 450 nm. For EdU analysis, reagent A is added a medium in a 24-well plate and cultured at 37° C. for 4 h to label EdU, and then, cells are captured with a fluorescence microscope (EVOS FL) according to manufacturer's instructions. […]

In assay [3] the test system is endothelial protein C receptor (EPCR). Kind of assay: Western blotting of EPCR expression and EPCR pathway in HCAECs treated with EPCR activators, alone or with rapamycin. Format: cell-based, human. The note with it: for activation of the EPCR pathway in HCAECs / protein expression of the EPCR in HCAECs: 10 μM APC, 40 μM TR47, 20 μM Parmodulin 2, 24 h; for effect on the rapamycin-induced inhibition of the EPCR in HCAECs: activator in combination with 100 nM rapamycin, 24 h. Here is the method:
Specifically, HCAECs are cultured in an EBM-2 (Lonza, CC3156) supplemented with a 3% fetal bovine serum (FBS) and endothelial growth factor supplement mixture (Lonza, CC4176) under standard cell culture conditions (37° C., 5% of CO2), and cells of generations of P3-5 are tested at 70%-80%. HCAECs are treated with 10 μM of APC, 40 μM of TR47 and 20 μM of Parmodulin 2, or each in combination with 100 nM of rapamycin for 24 h, and then, western blotting is performed for testing protein expression.
(In general: In western blotting, separated proteins are transferred to a membrane and probed.)

A further assay relates to platelets on HCAECs. Briefly: Adhesion of platelets to HCAECs on coated 316 L stainless steel. The note with it: PLGA slow-release coating on 316 L steel, co-culture 1 h; activators in combination with rapamycin. Format: cell-based, human. Here is the method:
as §2, §3, §4

For another assay, the system named is neutrophils on HCAECs. Briefly: Adhesion of neutrophils to HCAECs on coated 316 L stainless steel. The class given is cell-based, human. The note with it: PLGA slow-release coating on 316 L steel, co-culture 1 h; activators in combination with rapamycin. Here is the method:
as §2, §3, §4

The test system of assay [4] is HCAECs. Kind of assay: EdU multiplication of HCAECs on coated 316 L stainless steel. Format: cell-based, human. The note with it: PLGA slow-release coating, 48 h, rapamycin 50 μg/mL, activators in combination with rapamycin. Here is the method:
as §2, §3, §4

Assay [5] deals with vascular smooth muscle cells (HCASMCs, HASMCs). Kind of assay: Transwel chamber and scratch migration tests of vascular smooth muscle cells. Format: cell-based, human. The note with it: APC 10 μM. Here is the method: (§5) Generations 3-5 of primary human coronary artery smooth muscle cells (HCASMCs) are cultured in a growth medium (Cell applications, cat #31-500). Human arterial smooth muscle cells (HASMCs) are cultured in a smooth muscle cell culture medium containing 2% of FBS and 1% of penicillin/streptomycin at 37° C. in a humidified atmosphere containing 5% of CO2. Ad-EC or Ad-EPCR infected the cells for 48 h. APC is 10 μM, and rapamycin is 100 nM. Fluorescence is observed by a microscope. Protein expression is tested by means of western blotting. The cell viability is tested by means of CCK-8, the cell multiplication capacity is observed by means of EdU, and the migration capacity is evaluated by means of Transwel chamber and scratch tests.

For assay [6] the test system is unchanged. Briefly: CCK-8 cell viability of vascular smooth muscle cells. Format: cell-based, human. The note with it: APC 10 μM. Here is the method:
as §5

Assay [7] has the same test system. Briefly: EdU cell multiplication of vascular smooth muscle cells. Format: cell-based, human. The note with it: APC 10 μM. Here is the method:
as §5

For assay [8], the system named is HCAECs. Briefly: Growth of HCAECs on coated 316 L stainless steel (stent simulation environment). Format: cell-based, human. The note with it: PLGA slow-release coating, 48 h; rapamycin 50 μg/mL; activators (APC 50 μg/mL, TR47 40 μM, Parmodulin 2 20 μM) in combination with rapamycin. Here is the method: as §2, §3, §4
Assay [9] relates to HCAECs. Briefly: Scratch migration of HCAECs on coated 316 L stainless steel. The class given is cell-based, human. The note with it: PLGA slow-release coating, 48 h, scratch method; rapamycin 50 μg/mL; activators in combination with rapamycin. Here is the method: as §2
After HCAECs are grown on the 316 L stainless steel plate for 48 h, the cell viability is tested by a CCK-8 method, the cell multiplication capacity is tested by an EdU method, and the cell migration capacity is tested by a scratch method. The HCAECs are co-cultured with neutrophils (10^6/well) or platelets (5×10^6/well) labeled with 2 μM of PKH-26 for 1 h. Calcein-AM staining is followed by fluorescence microscopy.

In assay [10] the test system is endothelial protein C receptor (EPCR). Kind of assay: Immunofluorescence of EPCR in mouse cardiac vessels after tail vein injection. The note with it: C57BL6/J mice, 2 mg/kg daily via tail vein injection for 2 weeks. The class given is in vivo. Here is the method:
as §1

Setting [11] is: doses shown in FIG. 1, western blotting.

On to `C=CC[C@@H]1/C=C(\C)C[C@H](C)C[C@H](OC)[C@H]2O[C@@](O)(C(=O)C(=O)N3CCCC[C@H]3C(=O)O[C@H](/C(C)=C/[C@@H]3CC[C@@H](O)[C@H](OC)C3)[C@H](C)[C@@H](O)CC1=O)[C@H](C)C[C@@H]2OC` [tacrolimus], for which, in assay [1] (100 nM, western blotting), the “expression of EPCR in HCAECs” value is “inhibit expression of the EPCR in HCAECs”.

In the case of activated protein C [APC], the “viability of HCAECs on 316 L stainless steel” value with HCAECs [2] is reported as “restore”. Also, in [3], the “activation of the EPCR pathway in HCAECs” value is given as “protectively activate the EPCR pathway”, the “protein expression of the EPCR in HCAECs” value is “induce protein expression of the EPCR in the cells” and the “effect on the rapamycin-induced inhibition of the EPCR in HCAECs” value was “antagonize the inhibitory effect of limus drugs such as rapamycin on the EPCR”. The “adhesion of platelets to surface of ECs” value with platelets on HCAECs is given as “inhibit adhesion”. In the assay on neutrophils on HCAECs, the “adhesion of neutrophils to surface of ECs” value is reported as “inhibit adhesion”. The “multiplication of HCAECs on 316 L stainless steel” value with HCAECs [4] is “restore”. The “migration capacity of vascular smooth muscle cells” value in assay [5] is “does not affect”. For the same compound, in assay [6], the “cell viability of vascular smooth muscle cells” value is “does not affect”. Further, the “multiplication capacity of vascular smooth muscle cells” value in assay [7] was “does not affect”. In the assay with HCAECs [8], the “growth of HCAECs on 316 L stainless steel” value is on record as “restore”. For the same compound, in the assay on HCAECs [9], the “migration of HCAECs on 316 L stainless steel” value was “restore”.

Regarding `CC[C@@H]1/C=C(\C)C[C@H](C)C[C@H](OC)[C@H]2O[C@@](O)(C(=O)C(=O)N3CCCC[C@H]3C(=O)O[C@H](/C(C)=C/[C@@H]3CC[C@H](Cl)[C@H](OC)C3)[C@H](C)[C@@H](O)CC1=O)[C@H](C)C[C@@H]2OC` [pimecrolimus], the “expression of EPCR in HCAECs” value in assay [1] (100 nM, western blotting) was “inhibit expression of the EPCR in HCAECs”.

For the compound `CC(=O)O[C@H]1C(=O)[C@@]2(C)[C@H]([C@H](OC(=O)c3ccccc3)[C@]3(O)C[C@H](OC(=O)[C@H](O)[C@@H](NC(=O)c4ccccc4)c4ccccc4)C(C)=C1C3(C)C)[C@]1(OC(C)=O)CO[C@@H]1C[C@@H]2O` [paclitaxel], the “expression of EPCR in HCAECs” value in assay [1] (setting [11]) is “inhibit expression of an EPCR in HCAECs in a concentration-dependent manner”. Also, the “expression of EPCR in mouse cardiac vessels” value in assay [10] is on record as “inhibit expression of the EPCR in mouse cardiac vessels”.

For `CO[C@H]1C[C@@H]2CC[C@@H](C)[C@@](O)(O2)C(=O)C(=O)N2CCCC[C@H]2C(=O)O[C@H]([C@H](C)C[C@@H]2CC[C@H](n3cnnn3)[C@H](OC)C2)CC(=O)[C@H](C)/C=C(\C)[C@@H](O)[C@@H](OC)C(=O)[C@H](C)C[C@H](C)/C=C/C=C/C=C/1C` [zotarolimus], the “expression of EPCR in HCAECs” value in [1] (setting [11]) is given as “inhibit expression of an EPCR in HCAECs in a concentration-dependent manner”. Moreover, the “expression of EPCR in mouse cardiac vessels” value in [10] is “inhibit expression of the EPCR in mouse cardiac vessels”.

Take `CCOCCO[C@@H]1CC[C@@H](C[C@@H](C)[C@@H]2CC(=O)[C@H](C)/C=C(\C)[C@@H](O)[C@@H](OC)C(=O)[C@H](C)C[C@H](C)/C=C/C=C/C=C(\C)[C@@H](OC)C[C@@H]3CC[C@@H](C)[C@@](O)(O3)C(=O)C(=O)N3CCCC[C@H]3C(=O)O2)C[C@H]1OC` [biolimus A9]: the “expression of EPCR in HCAECs” value in assay [1] (100 nM, western blotting) is reported as “inhibit expression of the EPCR in HCAECs”.

Turning to `CCCC(=O)Nc1cccc(NC(=O)c2ccccc2Br)c1` [Parmodulin 2], in the assay on HCAECs [2], the “viability of HCAECs on 316 L stainless steel” value is on record as “restore”. In assay [3], the “activation of the EPCR pathway in HCAECs” value is listed as “protectively activate the EPCR pathway”, the “protein expression of the EPCR in HCAECs” value was “induce protein expression of the EPCR in the cells” and the “effect on the rapamycin-induced inhibition of the EPCR in HCAECs” value is “antagonize the inhibitory effect of limus drugs such as rapamycin on the EPCR”. In addition, the “adhesion of platelets to surface of ECs” value in the assay with platelets on HCAECs is recorded as “inhibit adhesion”. Also, the “adhesion of neutrophils to surface of ECs” value with neutrophils on HCAECs is on record as “inhibit adhesion”. For the same compound, the “multiplication of HCAECs on 316 L stainless steel” value in the assay with HCAECs [4] is listed as “restore”. Besides, the “growth of HCAECs on 316 L stainless steel” value with HCAECs [8] was “restore”. Also, the “migration of HCAECs on 316 L stainless steel” value in the assay on HCAECs [9] is recorded as “restore”.

As for `CO[C@H]1C[C@@H]2CC[C@@H](C)[C@@](O)(O2)C(=O)C(=O)N2CCCC[C@H]2C(=O)O[C@H]([C@H](C)C[C@@H]2CC[C@@H](OCCO)[C@H](OC)C2)CC(=O)[C@H](C)/C=C(\C)[C@@H](O)[C@@H](OC)C(=O)[C@H](C)C[C@H](C)/C=C/C=C/C=C/1C` [everolimus], the “expression of EPCR in HCAECs” value in assay [1] (setting [11]) is reported as “inhibit expression of an EPCR in HCAECs in a concentration-dependent manner”. In addition, in assay [10], the “expression of EPCR in mouse cardiac vessels” value is listed as “inhibit expression of the EPCR in mouse cardiac vessels”.

For `CO[C@H]1C[C@@H]2CC[C@@H](C)[C@@](O)(O2)C(=O)C(=O)N2CCCC[C@H]2C(=O)O[C@H]([C@H](C)C[C@@H]2CC[C@@H](OP(C)(C)=O)[C@H](OC)C2)CC(=O)[C@H](C)/C=C(\C)[C@@H](O)[C@@H](OC)C(=O)[C@H](C)C[C@H](C)/C=C/C=C/C=C/1C` [deforolimus], in assay [1] (100 nM, western blotting), the “expression of EPCR in HCAECs” value was “inhibit expression of the EPCR in HCAECs”.
